Measured values published in patent publication US20240158348A1, “HERBICIDAL CYCLIC AMIDES N-SUBSTITUTED WITH A HALOALKYLSULFONYLANILIDE GROUP” (FMC Corporation, priority 2021, published 2024).

Key:
Type in all cases: in vivo
[1] = system: barnyardgrass (Echinochloa crusgalli); assay: Test D flooded paddy test, barnyardgrass; parameters: key: 0 = no effect, 100 = complete control; conditions: 250 g ai/ha, Flood; applied to paddy water at 2-leaf stage; visual rating after 13 days; scale 0 (no effect) to 100 (complete control)
Outline: (§1)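 Pots holding 2-leaf-stage plants were flooded 3 cm deep and dosed via the water, which stayed at that level. After 13 greenhouse days, injury was scored visually against untreated controls, 0 (none) to 100 (complete control); a dash marks no test result.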

[2] = system: blackgrass (Alopecurus myosuroides); assay: Test C preemergence, blackgrass; conditions: 0 is no effect, 100 is complete control
Outline: (§2)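 Ratings run from 0, meaning no effect, up to 100, meaning complete control, judged by eye against untreated plants. Treatment was a directed soil spray before emergence or a postemergence spray on 2–10 cm seedlings, with evaluation 10 or 12 days later.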

[3] = system: corn (Zea mays); assay: Test C postemergence, corn; conditions: visual injury, 0 to 100 scale (0 no effect, 100 complete control)
[4] = system: kochia (Bassia scoparia); assay: Test C preemergence, kochia; conditions: 0 is no effect, 100 is complete control
Outline: as §2

[5] = system: ragweed (common ragweed, Ambrosia artemisiifolia); assay: Test C postemergence, ragweed; conditions: visual injury, 0 to 100 scale (0 no effect, 100 complete control)
Outline: as §2

[6] = system: sedge, umbrella (small-flower umbrella sedge, Cyperus difformis); assay: Test D flooded paddy test, umbrella sedge; parameters: key: 0 = no effect, 100 = complete control; conditions: 250 g ai/ha, Flood; applied to paddy water at 2-leaf stage; visual rating after 13 days; scale 0 (no effect) to 100 (complete control)
Outline: as §1

[7] = system: oat, wild (wild oat, Avena fatua); assay: Test C preemergence, wild oat; conditions: 0 is no effect, 100 is complete control
Outline: as §2

[8] = system: ryegrass, Italian (Italian ryegrass, Lolium multiflorum); assay: Test C preemergence, Italian ryegrass; conditions: 0 is no effect, 100 is complete control
Outline: as §2

[9] = system: foxtail, giant (giant foxtail, Setaria faberi); assay: Test C postemergence, giant foxtail; conditions: visual injury, 0 to 100 scale (0 no effect, 100 complete control)

SMILES	Plant response rating, Barnyardgrass [1]	Plant response rating (0 to 100 scale), Blackgrass ([2]; 31 g ai/ha Preemergence)	Plant response rating (0 to 100 scale), Blackgrass ([2]; 125 g ai/ha Preemergence)	Corn plant response rating ([3]; 31 g ai/ha Postemergence)	Corn plant response rating ([3]; 125 g ai/ha Postemergence)	Plant response rating (0 to 100 scale), Kochia ([4]; 31 g ai/ha Preemergence)	Plant response rating (0 to 100 scale), Kochia ([4]; 125 g ai/ha Preemergence)	Ragweed plant response rating ([5]; 31 g ai/ha Postemergence)	Ragweed plant response rating ([5]; 125 g ai/ha Postemergence)	Plant response rating, Sedge, Umbrella [6]	Plant response rating (0 to 100 scale), Oat, Wild ([7]; 31 g ai/ha Preemergence)	Plant response rating (0 to 100 scale), Oat, Wild ([7]; 125 g ai/ha Preemergence)	Plant response rating (0 to 100 scale), Ryegrass, Italian ([8]; 31 g ai/ha Preemergence)	Plant response rating (0 to 100 scale), Ryegrass, Italian ([8]; 125 g ai/ha Preemergence)	Foxtail, Giant plant response rating ([9]; 31 g ai/ha Postemergence)	Foxtail, Giant plant response rating ([9]; 125 g ai/ha Postemergence)
Cc1cc(C)c(N2CCC(OCC3CCC3)C2=O)cc1NS(=O)(=O)C(F)(F)F (centres unmarked) [Compound 43]	25	40	50	40	90	60	80	50	90	95	0	50	80	100	10	90
Cc1c(NS(=O)(=O)C(F)(F)F)cc(N2CCC(OC3CCC3)C2=O)c(C)c1C (centres unmarked) [Compound 45]	95	60	90	20	90	90	100	50	80	90	80	90	50	90	30	80
Cc1cc(C)c(N2CCC(OCC3CCCC3)C2=O)cc1NS(=O)(=O)C(F)(F)F (centres unmarked) [Compound 57]	15	40	80	0	40	60	80	40	60	95	20	80	70	90	60	70
C#CC(C)OC1CCN(c2cc(NS(=O)(=O)C(F)(F)F)c(C)cc2C)C1=O (centres unmarked) [Compound 58]	90	80	100	60	90	80	90	70	90	95	90	100	90	100	60	90
C=C(C)COC1CCN(c2cc(NS(=O)(=O)C(F)(F)F)c(C)cc2C)C1=O (centres unmarked) [Compound 59]	60	70	90	20	90	80	100	10	70	95	80	100	30	100	10	90
Cc1cc(C)c(N2CCC(OCc3ccccc3)C2=O)cc1NS(=O)(=O)C(F)(F)F (centres unmarked) [Compound 61]	95	60	90	10	60	90	100	50	80	90	50	90	60	90	20	50
Cc1c(NS(=O)(=O)C(F)(F)F)cc(N2CCC(OCC3CC3)C2=O)c(C)c1F (centres unmarked) [Compound 63]	45	70	90	0	50	90	100	40	80	95	70	100	50	100	0	30
Cc1c(NS(=O)(=O)C(F)(F)F)cc(N2CCC(OCC3CCC3)C2=O)c(C)c1F (centres unmarked) [Compound 64]	25	20	70	0	10	70	90	30	70	95	20	90	50	90	0	20
